Four molecules from ChEMBL document CHEMBL5321245, “Synthesis and Bioactivity of Isoflavones from Ficus carica and Some Non-Natural Analogues” (J Nat Prod, 2023) can be followed below.

Structures are written as SMILES. pIC50: −log10 of the molar value. ≈ marks a conversion by molar mass, not a printed value.

Holding throughout (assay type): functional
The subject of assay [1] is Providencia stuartii. Kind of assay: Antibacterial activity against Providencia stuartii ATCC29916 assessed as inhibition of bacterial growth incubated for 24 hrs by broth microdilution method. (In general: Dilution methods test growth across graded concentrations, often in twofold steps.)
Assay [2] relates to Providencia stuartii. In words: Antibacterial activity against Providencia stuartii PS2636 assessed as inhibition of bacterial growth incubated for 18 to 24 hrs in the presence of PAbetaN by microdilution method. As to conditions: time 18-24 hrs.
For assay [3], the system named is Staphylococcus aureus. In words: Antibacterial activity against methicillin-resistant Staphylococcus aureus 6 assessed as inhibition of bacterial growth incubated for 18 to 24 hrs by microdilution method. The settings on record: time 18-24 hrs.
In assay [4] the test system is Pseudomonas aeruginosa. In words: Antibacterial activity against Pseudomonas aeruginosa PA01 assessed as inhibition of bacterial growth incubated for 18 to 24 hrs by microdilution method. As to conditions: time 18-24 hrs.
In assay [5] the test system is Staphylococcus aureus. Kind of assay: Antibacterial activity against methicillin-resistant Staphylococcus aureus 6 assessed as inhibition of bacterial growth incubated for 18 to 24 hrs in the presence of PAbetaN by microdilution method. The settings on record: time 18-24 hrs.
Assay [6] has as its system Klebsiella pneumoniae. In words: Antibacterial activity against Klebsiella pneumoniae KP63 assessed as inhibition of bacterial growth incubated for 18 to 24 hrs in presence of PAbetaN by microdilution method. The settings on record: time 18-24 hrs.
The next assay concerns Enterococcus faecalis. Kind of assay: Antibacterial activity against Enterococcus faecalis ATCC10541 assessed as inhibition of bacterial growth incubated for 24 hrs by broth microdilution method.
Assay [7] deals with Escherichia coli. In words: Antibacterial activity against Escherichia coli AG102 assessed as inhibition of bacterial growth incubated for 18 to 24 hrs by microdilution method. The settings on record: time 18-24 hrs.
The subject of assay [8] is Escherichia coli. Kind of assay: Antibacterial activity against Escherichia coli AG102 assessed as inhibition of bacterial growth incubated for 18 to 24 hrs in the presence of PAbetaN by microdilution method. The settings on record: time 18-24 hrs.
Assay [9] concerns Providencia stuartii. In words: Antibacterial activity against Providencia stuartii NEA16 assessed as inhibition of bacterial growth incubated for 18 to 24 hrs by microdilution method. As to conditions: time 18-24 hrs.
Assay [10] concerns Klebsiella pneumoniae. Kind of assay: Antibacterial activity against Klebsiella pneumoniae KP63 assessed as inhibition of bacterial growth incubated for 18 to 24 hrs by microdilution method. The settings on record: time 18-24 hrs.
Assay [11] relates to Klebsiella pneumoniae. Kind of assay: Antibacterial activity against Klebsiella pneumoniae ATCC 11296 assessed as inhibition of bacterial growth incubated for 18 to 24 hrs by microdilution method. As to conditions: time 18-24 hrs.
Assay [12] concerns CCRF-CEM. In words: Cytotoxicity against drug sensitive human CCRF-CEM cells assessed as inhibition of cell growth at 10 uM incubated for 72 hrs by resazurin dye based assay relative to control. Background: Alamar Blue is a resazurin reagent that responds to reducing activity.
Assay [13] relates to Staphylococcus aureus. Kind of assay: Antibacterial activity against methicillin-resistant Staphylococcus aureus 4 assessed as inhibition of bacterial growth incubated for 18 to 24 hrs by microdilution method. The settings on record: time 18-24 hrs.
Assay [14] relates to Pseudomonas aeruginosa. Kind of assay: Antibacterial activity against Pseudomonas aeruginosa PA124 assessed as inhibition of bacterial growth incubated for 18 to 24 hrs by microdilution method. The settings on record: time 18-24 hrs.
For assay [15], the system named is Providencia stuartii. In words: Antibacterial activity against Providencia stuartii PS2636 assessed as inhibition of bacterial growth incubated for 18 to 24 hrs by microdilution method. The settings on record: time 18-24 hrs.
Assay [16] relates to Pseudomonas aeruginosa. In words: Antibacterial activity against Pseudomonas aeruginosa PA01 assessed as inhibition of bacterial growth incubated for 18 to 24 hrs in the presence of PAbetaN by microdilution method. As to conditions: time 18-24 hrs.
Assay [17] deals with Klebsiella pneumoniae. In words: Antibacterial activity against Klebsiella pneumoniae ATCC 11296 assessed as inhibition of bacterial growth incubated for 18 to 24 hrs in presence of PAbetaN by microdilution method. The settings on record: time 18-24 hrs.
For assay [18], the system named is Staphylococcus aureus. In words: Antibacterial activity against Staphylococcus aureus […] assessed as inhibition of bacterial growth incubated for 24 hrs by broth microdilution method.
Assay [19] deals with Pseudomonas aeruginosa. In words: Antibacterial activity against Pseudomonas aeruginosa PA124 assessed as inhibition of bacterial growth incubated for 18 to 24 hrs in the presence of PAbetaN by microdilution method. As to conditions: time 18-24 hrs.
For assay [20], the system named is Staphylococcus aureus. In words: Antibacterial activity against methicillin-resistant Staphylococcus aureus 4 assessed as inhibition of bacterial growth incubated for 18 to 24 hrs in the presence of PAbetaN by microdilution method. As to conditions: time 18-24 hrs.
The test system of assay [21] is Providencia stuartii. Kind of assay: Antibacterial activity against Providencia stuartii NEA16 assessed as inhibition of bacterial growth incubated for 18 to 24 hrs in the presence of PAbN by microdilution method. The settings on record: time 18-24 hrs.
Assay [22] concerns Escherichia coli. Kind of assay: Antibacterial activity against Escherichia coli ATCC 10536 assessed as inhibition of bacterial growth incubated for 18 to 24 hrs by microdilution method. As to conditions: time 18-24 hrs.
For another assay, the system named is Nannizzia gypsea. Kind of assay: Antimicrobial activity against Microsporum gypseum E1420 assessed as inhibition of microbial growth incubated for 5 days by broth microdilution method. The settings on record: E1420, 120 h, time 5 day.
Assay [23] has as its system Meyerozyma guilliermondii. Kind of assay: Antimicrobial activity against clinical isolate Candida guilliermondii assessed as inhibition of microbial growth incubated for 48 hrs by broth microdilution method.
Assay [24] deals with Escherichia coli. In words: Antibacterial activity against Escherichia coli ATCC 10536 assessed as inhibition of bacterial growth incubated for 18 to 24 hrs in the presence of PAbetaN by microdilution method. As to conditions: time 18-24 hrs.
The subject of a further assay is Candida albicans. Kind of assay: Antimicrobial activity against Candida albicans ATCC 2091 assessed as inhibition of microbial growth incubated for 48 hrs by broth microdilution method.
In assay [25] the test system is CCRF-CEM. Kind of assay: Cytotoxicity against drug sensitive human CCRF-CEM cells assessed as inhibition of cell growth incubated for 72 hrs by resazurin dye based assay.
For another assay, the system named is ADR5000 cell line. Kind of assay: Cytotoxicity against multidrug resistant human CEM/ADR5000 cells overexpressing p-glycoprotein assessed as inhibition of cell growth incubated for 72 hrs by resazurin dye based assay. As to conditions: ADR5000, 72 h.

`COc1c(CC=C(C)C)c(O)cc2occ(-c3ccc4c(c3)OCO4)c(=O)c12`: in the assay on Providencia stuartii [1], the MIC came to 25 µg/mL (≈ 65.7 µM).
As to `COc1cc2occ(-c3ccc(O)cc3)c(=O)c2c(OC)c1CC=C(C)C`, the MIC is 4 µg/mL with Providencia stuartii [2]; 32 µg/mL (≈ 87.3 µM) with Staphylococcus aureus [3]; 130 µg/mL (≈ 355 µM) in the assay on Pseudomonas aeruginosa [4]; 32 µg/mL in the assay with Staphylococcus aureus [5]; 1 µg/mL in the assay on Klebsiella pneumoniae [6]; at least 100 µg/mL with Enterococcus faecalis. For the same molecule, the MIC in the assay on Escherichia coli [7] was found to be 16 µg/mL (≈ 43.7 µM); in the assay with Escherichia coli [8], 4 µg/mL; in the assay with Providencia stuartii [9] it was 8 µg/mL (≈ 21.8 µM); with Klebsiella pneumoniae [10] it was 16 µg/mL (≈ 43.7 µM); with Klebsiella pneumoniae [11], 130 µg/mL (≈ 355 µM); in the assay on Staphylococcus aureus [13], 64 µg/mL (≈ 175 µM). For the same molecule, the MIC in the assay with Pseudomonas aeruginosa [14] is 32 µg/mL (≈ 87.3 µM); in the assay with Providencia stuartii [15], 130 µg/mL (≈ 355 µM); with Pseudomonas aeruginosa [16], 130 µg/mL; in the assay on Providencia stuartii [1], at least 100 µg/mL; in the assay on Klebsiella pneumoniae [17] it was 2 µg/mL; with Staphylococcus aureus [18], at least 100 µg/mL. Moreover, the minimum inhibitory concentration (MIC) in the assay with Pseudomonas aeruginosa [19] is 4 µg/mL; with Staphylococcus aureus [20], 32 µg/mL; in the assay on Providencia stuartii [21], 1 µg/mL; in the assay on Escherichia coli [22], 130 µg/mL (≈ 355 µM); with Nannizzia gypsea it was 12.5 µg/mL; in assay [23], 12.5 µg/mL. Also, the MIC was 2 µg/mL with Escherichia coli [24] and 12.5 µg/mL in the assay on Candida albicans. The inhibition at 10 µM in the assay on CCRF-CEM [12] was below 50%.
In the case of `COc1cc2occ(-c3ccc4[nH]ccc4c3)c(=O)c2c(OC)c1CC=C(C)C`, the minimum inhibitory concentration (MIC) in the assay with Providencia stuartii [2] was determined as 4 µg/mL; in the assay on Staphylococcus aureus [3], 32 µg/mL (≈ 82.2 µM); with Pseudomonas aeruginosa [4] it was 130 µg/mL (≈ 334 µM); in the assay on Staphylococcus aureus [5] it was 1 µg/mL; in the assay on Klebsiella pneumoniae [6] it was 1 µg/mL; in the assay on Escherichia coli [7], 130 µg/mL (≈ 334 µM). The MIC with Escherichia coli [8] is 64 µg/mL; with Providencia stuartii [9], 130 µg/mL (≈ 334 µM); with Klebsiella pneumoniae [10], above 130 µg/mL; in the assay with Klebsiella pneumoniae [11] it was 130 µg/mL (≈ 334 µM); in the assay on Staphylococcus aureus [13], above 130 µg/mL; with Pseudomonas aeruginosa [14], above 130 µg/mL. The minimal inhibitory concentration (MIC) in the assay on Providencia stuartii [15] turned out to be 64 µg/mL (≈ 164 µM); with Pseudomonas aeruginosa [16], 8 µg/mL; in the assay with Klebsiella pneumoniae [17], 4 µg/mL; in the assay on Pseudomonas aeruginosa [19] it was 2 µg/mL; in the assay on Staphylococcus aureus [20], 4 µg/mL; in the assay on Providencia stuartii [21] it was 8 µg/mL. In addition, the MIC in the assay on Escherichia coli [22] stood at 130 µg/mL (≈ 334 µM); with Escherichia coli [24], 130 µg/mL. For the same molecule, the inhibition at 10 µM in the assay with CCRF-CEM [12] is below 50%.
Take `COc1cc2occ(-c3ccc(C=O)cc3)c(=O)c2c(OC)c1CC=C(C)C`: the minimal inhibitory concentration (MIC) was found to be 16 µg/mL in the assay on Providencia stuartii [2]; 130 µg/mL (≈ 344 µM) in the assay on Staphylococcus aureus [3]; 64 µg/mL (≈ 169 µM) with Pseudomonas aeruginosa [4]; 64 µg/mL in the assay on Staphylococcus aureus [5]; 2 µg/mL with Klebsiella pneumoniae [6]; 130 µg/mL (≈ 344 µM) in the assay with Escherichia coli [7]. The MIC with Escherichia coli [8] was 8 µg/mL; with Providencia stuartii [9], 64 µg/mL (≈ 169 µM); with Klebsiella pneumoniae [10], 130 µg/mL (≈ 344 µM); with Klebsiella pneumoniae [11] it was above 130 µg/mL; in the assay on Staphylococcus aureus [13] it was 130 µg/mL (≈ 344 µM); in the assay on Pseudomonas aeruginosa [14], 130 µg/mL (≈ 344 µM). The MIC in the assay with Providencia stuartii [15] was found to be 130 µg/mL (≈ 344 µM); in the assay on Pseudomonas aeruginosa [16] it was 16 µg/mL; with Klebsiella pneumoniae [17], 8 µg/mL; in the assay on Pseudomonas aeruginosa [19], 8 µg/mL; with Staphylococcus aureus [20], 8 µg/mL; with Providencia stuartii [21], 2 µg/mL. Further, the MIC in the assay with Escherichia coli [22] was found to be 32 µg/mL (≈ 84.6 µM); in the assay with Escherichia coli [24], 8 µg/mL. Besides, the negative-log IC50 (pIC50) in the assay with CCRF-CEM [25] and in the assay with ADR5000 cell line was 4.70 each time.

As a reminder, the MIC is the lowest concentration found to suppress growth. A word on the inhibition: it is how much of the control response was suppressed. As usually defined, the pIC50 is the IC50 on a negative log10 scale, so that one unit is a factor of ten.
